US6849761B2, “Substituted naphthoic acid derivatives useful in the treatment of insulin resistance and hyperglycemia” (Wyeth, priority 2002, dated 2005)
Counter-ions that a name gives are not always drawn.

Assays:
[1] = target: T1, human-derived recombinant PTPase-1B (hPTP-1B) (Homo sapiens, UniProt P18031); assay: PTP-1B inhibition assay (DIFMUP fluorescence kinetic assay); assay type: biochemical; conditions: inhibitor at 40 μM; 20 μM DIFMUP; 1 nM enzyme; calculated from average velocity Va vs control
T1 sequence (P18031 1-435): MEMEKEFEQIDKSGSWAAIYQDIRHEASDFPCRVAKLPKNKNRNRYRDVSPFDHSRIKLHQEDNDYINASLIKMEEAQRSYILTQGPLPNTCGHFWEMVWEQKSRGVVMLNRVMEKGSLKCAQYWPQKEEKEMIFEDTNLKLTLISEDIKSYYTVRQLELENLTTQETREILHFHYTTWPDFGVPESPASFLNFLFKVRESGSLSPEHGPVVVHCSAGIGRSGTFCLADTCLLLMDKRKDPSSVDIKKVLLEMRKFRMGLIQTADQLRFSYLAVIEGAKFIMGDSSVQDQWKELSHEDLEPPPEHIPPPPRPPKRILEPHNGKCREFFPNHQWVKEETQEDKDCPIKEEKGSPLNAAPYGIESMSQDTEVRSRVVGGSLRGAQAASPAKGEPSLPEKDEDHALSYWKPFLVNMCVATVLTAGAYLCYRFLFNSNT
Description: Measurement of PTPase activity: Compounds are assayed in an enzyme activity-based assay. PTP-1B is known to dephosphorylate phosphopeptides. This assay is a fluorescence intensity based kinetic assay, taking advantage of a non-peptidyl substrate, 6,8-difluoro-4-methylumbelliferyl phosphate (DIFMUP). When excited at 358 nm, the dephosphorylated product of DIFMUP emits at 450 nm.
Examples 1-5 (set forth below) were analyzed as follows. The assay was conducted in black 384-well non-treated plates (Costar#3710). The assay buffer contained 50 mM 3,3-dimethyl glutaric acid, pH 7.0, 48 mM NaCl, 1 mM EDTA. Inhibitors were prepared as DMSO solution and diluted to desired concentrations using 50 mM HEPES, pH 7.4. PTP-1B was diluted to a 2.5 nM working stock using the assay buffer containing additional 0.001% (w/v) hydrogenated Triton X-100. DIFMUP was diluted to 40 μM using the assay buffer. 5 μl of inhibitor was first dispensed into assay plate. In cases of control reactions, 5 μl of the assay buffer was dispensed. This was followed by 25 μl of DIFMUP working stock. The reaction was then initiated by the addition of 20 μl of PTP-1B working stock. The final DIFMUP concentration was 20 μM (˜1.6×Km). The final enzyme concentration was 1 nM and the detergent concentration was 0.0004% (w/v). Typical inhibitor concentrations were from 0.08 to 40 μM. The reaction progress was monitored continuously for 30 min.
Calculations: For data analysis, the last five data points were used to obtain a slope corresponding to the estimated steady-state velocity (Vs), and the overall progress curves were used to obtain the average velocity (Va), by linear regression in both cases. The apparent final potency of inhibitor (Kiapp) was then calculated from Vs data, using the standard hyperbolic inhibition equation. The IC50 values were calculated from Va data using the sigmoidal inhibition equation. % inhibition values were calculated from Va values of inhibitor at 40 μM, and the average Va value of control reactions.

inhibition at 40 µM [1] | melting point | Structure (SMILES)
23% | – | COc1ccc2cc(C(=O)O)ccc2c1CNCc1ccc(S(N)(=O)=O)cc1 [Example 3, 5-({[4-(Aminosulfonyl)benzyl]amino}methyl)-6-methoxy-2-naphthoic acid]
– | 235 to 237 °C | COc1ccc2cc(C(=O)O)ccc2c1CNCc1ccc(OC(F)(F)F)cc1 (as salt: salt) [Example 1, 6-Methoxy-5-({[4-(trifluoromethoxy)benzyl]amino}methyl)-2-naphthoic acid]
– | > 215 °C (dec.) | COc1ccc2cc(C(=O)O)ccc2c1CNCc1ccc(N(C)C)cc1 (as salt: salt) [Example 4, 5-({[4-(Dimethylamino)benzyl]amino}methyl)-6-methoxy-2-naphthoic acid]
– | 268 to 270 °C (dec.) | COc1ccc2cc(C(=O)O)ccc2c1CNCc1ccc(F)cc1 (as salt: salt) [Example 2, 5-{[(4-Fluorobenzyl)amino]methyl)-6-methoxy-2-naphthoic acid]
37% | – | COc1ccc2cc(C(=O)O)ccc2c1CNCc1ccc(F)cc1 [Example 2, 5-{[(4-Fluorobenzyl)amino]methyl)-6-methoxy-2-naphthoic acid]
34% | – | COc1ccc2cc(C(=O)O)ccc2c1CNCc1ccc(N(C)C)cc1 [Example 4, 5-({[4-(Dimethylamino)benzyl]amino}methyl)-6-methoxy-2-naphthoic acid]
– | 283 to 285 °C (dec.) | COc1ccc2cc(C(=O)O)ccc2c1CNCc1ccc(S(N)(=O)=O)cc1 (as salt: salt) [Example 3, 5-({[4-(Aminosulfonyl)benzyl]amino}methyl)-6-methoxy-2-naphthoic acid]
50% | – | COc1ccc2cc(C(=O)O)ccc2c1CNCc1ccc(OC(F)(F)F)cc1 [Example 1, 6-Methoxy-5-({[4-(trifluoromethoxy)benzyl]amino}methyl)-2-naphthoic acid]
38% | > 266 °C (dec.) | O=C(O)COc1ccc2cc(C(=O)O)ccc2c1CNCc1ccc(OC(F)(F)F)cc1 [Example 5, 6-(Carboxymethoxy)-5-({[4-(trifluoromethoxy)benzyl]amino}methyl)-2-naphthoic acid]
